# ChEMBL document CHEMBL1201862, “PubChem BioAssay data set” (2004)
#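 Method: 48-hour compound exposure of cells in 96-well plates, five concentrations, linear interpolation of endpoints. GI50: concentration for 50% inhibition of growth.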 The source made the active and inactive calls. No stated cut-off is given here; in the data, active = GI50 up to about 1.1 µM and inactive = higher.
# Tests used:
# Test in all cases: NCI anticancer screen, dose series, 48 h
# [1] = test system: OVCAR-5
# [2] = test system: RXF 393
# [3] = test system: U-251
# [4] = test system: NCI-H522
# [5] = test system: MDA-MB-435
# [6] = test system: IGROV-1
# [7] = test system: ACHN
# [8] = test system: RPMI-8226
# [9] = test system: DU-145
# [10] = test system: HOP-62
# [11] = test system: CCRF-CEM
# [12] = test system: MOLT-4
# [13] = test system: UACC-257
# [14] = test system: T47D
# [15] = test system: SW-620
# [16] = test system: A549
# [17] = test system: HT-29
# [18] = test system: SR
# [19] = test system: NCI/ADR-RES
# [20] = test system: TK-10
# [21] = test system: SNB-19
# [22] = test system: 786-0
# [23] = test system: MCF7
# [24] = test system: SNB-75
# [25] = test system: OVCAR-4
# [26] = test system: M14
# [27] = test system: KM12
# [28] = test system: SK-MEL-2
# [29] = test system: NCI-H23
# [30] = test system: MDA-N
# [31] = test system: Hs-578T
# [32] = test system: HOP-92
# [33] = test system: BT-549
# [34] = test system: LOX IMVI
# [35] = test system: UO-31
# [36] = test system: PC-3
# [37] = test system: K562
# [38] = test system: NCI-H460
# [39] = test system: HL-60
# [40] = test system: MDA-MB-231
# [41] = test system: SF-295
# [42] = test system: Malme-3M
# [43] = test system: UACC-62
# [44] = test system: COLO 205
# [45] = test system: HCC 2998
# [46] = test system: CAKI-1
# [47] = test system: A498
# [48] = test system: SF-539
# [49] = test system: SK-OV-3
# [50] = test system: SF-268
# [51] = test system: OVCAR-3
# [52] = test system: EKVX
# [53] = test system: HCT-15
# [54] = test system: SK-MEL-28
# [55] = test system: SN12C
# [56] = test system: HCT-116
# [57] = test system: SK-MEL-5
# [58] = test system: OVCAR-8
smiles,measurement,setting,value
COc1cccc2c(=O)oc(-c3ccc(C(C)(C)C)cc3)nc12,GI50,[1],> 100 µM (inactive)
same,GI50,[2],49.3 µM (inactive)
same,GI50,[3],42.2 µM (inactive)
same,GI50,[4],30.1 µM (inactive)
same,GI50,[5],59.7 µM (inactive)
same,GI50,[6],45.1 µM (inactive)
same,GI50,[7],> 100 µM (inactive)
same,GI50,[8],34.3 µM (inactive)
same,GI50,[9],> 100 µM (inactive)
same,GI50,[10],48.2 µM (inactive)
same,GI50,[11],33.7 µM (inactive)
same,GI50,[12],22.7 µM (inactive)
same,GI50,[13],> 100 µM (inactive)
same,GI50,[14],80.4 µM (inactive)
same,GI50,[15],55.2 µM (inactive)
same,GI50,[16],85.1 µM (inactive)
same,GI50,[17],41.7 µM (inactive)
same,GI50,[18],26.1 µM (inactive)
same,GI50,[19],54.8 µM (inactive)
same,GI50,[20],> 100 µM (inactive)
same,GI50,[21],> 100 µM (inactive)
same,GI50,[22],> 100 µM (inactive)
same,GI50,[23],57 µM (inactive)
same,GI50,[24],23.9 µM (inactive)
same,GI50,[25],53.6 µM (inactive)
same,GI50,[26],82 µM (inactive)
same,GI50,[27],32.4 µM (inactive)
same,GI50,[28],44 µM (inactive)
same,GI50,[29],> 100 µM (inactive)
same,GI50,[30],76.7 µM (inactive)
same,GI50,[31],79.3 µM (inactive)
same,GI50,[32],41.6 µM (inactive)
same,GI50,[33],44 µM (inactive)
same,GI50,[34],22.5 µM (inactive)
same,GI50,[35],> 100 µM (inactive)
same,GI50,[36],> 100 µM (inactive)
same,GI50,[37],> 100 µM (inactive)
same,GI50,[38],65.8 µM (inactive)
same,GI50,[39],18.5 µM (inactive)
same,GI50,[40],58.1 µM (inactive)
same,GI50,[41],69.7 µM (inactive)
same,GI50,[42],> 100 µM (inactive)
same,GI50,[43],> 100 µM (inactive)
same,GI50,[44],57 µM (inactive)
same,GI50,[45],0.447 µM (active)
same,GI50,[46],35.8 µM (inactive)
same,GI50,[47],> 100 µM (inactive)
same,GI50,[48],> 100 µM (inactive)
same,GI50,[49],80.9 µM (inactive)
same,GI50,[50],84.9 µM (inactive)
same,GI50,[51],29.9 µM (inactive)
same,GI50,[52],63.7 µM (inactive)
same,GI50,[53],65.5 µM
same,GI50,[54],> 100 µM (inactive)
same,GI50,[55],96.8 µM (inactive)
same,GI50,[56],49.9 µM (inactive)
same,GI50,[57],28.8 µM (inactive)
same,GI50,[58],39.7 µM (inactive)
